“Also recorded” adds a separate entry of the source.
Key:
U2OS.eGFP.PEST cells = experiment: Cell viability assay (ATP content), U2OS.eGFP.PEST cells; format: cell-based, human; settings: up to 20 μM, 24 h
Experimental: FIG. 22—Cell viability assay (ATP content) of U2OS.eGFP.PEST cells in the presence of compounds. Measurement ATP content of U2OS.eGFP.PEST cells upon incubating with BRD7087 and BRD5779 (5-20 μM) for 24 h. Error bars represent ±S.D. from technical replicates (n=3).
FIG. 66. Cell viability assay (ATP content) of U2OS.eGFP.PEST cells in the presence of compounds. Measurement of ATP content of U2OS.eGFP.PEST cells upon incubating with BRD7087 and BRD5779 (5-20 μM) for 24 h. Error bars represent ±S.D. from technical replicates (n=3).

HEK293T cells = experiment: Cell viability assay (ATP content), HEK293T cells; format: cell-based; settings: up to 20 μM, 24 h
Experimental: FIG. 23—Cell viability assay (ATP content) of […] cells in the presence of compounds. Measurement of ATP content of HEK293T cells upon incubating with BRD7087 and BRD5779 (5-20 μM) for 24 h. Error bars represent ±S.D. from technical replicates (n=3).
FIG. 67. Cell viability assay (ATP content) of HEK293T cells in the presence of compounds. Measurement of ATP content of HEK293T cells upon incubating with BRD7087 and BRD5779 (5-20 μM) for 24 h. Error bars represent ±S.D. from technical replicates (n=3).

SpCas9 [1] = target: T1, SpCas9 (Streptococcus pyogenes serotype M1, UniProt Q99ZW2); experiment: mKate2 expression (knockdown) assay; format: cell-based; settings: for activity in mKate2 assay: HEK293 cells, 1.5-5 μM, 24 h
T1 sequence (Q99ZW2 whole entry): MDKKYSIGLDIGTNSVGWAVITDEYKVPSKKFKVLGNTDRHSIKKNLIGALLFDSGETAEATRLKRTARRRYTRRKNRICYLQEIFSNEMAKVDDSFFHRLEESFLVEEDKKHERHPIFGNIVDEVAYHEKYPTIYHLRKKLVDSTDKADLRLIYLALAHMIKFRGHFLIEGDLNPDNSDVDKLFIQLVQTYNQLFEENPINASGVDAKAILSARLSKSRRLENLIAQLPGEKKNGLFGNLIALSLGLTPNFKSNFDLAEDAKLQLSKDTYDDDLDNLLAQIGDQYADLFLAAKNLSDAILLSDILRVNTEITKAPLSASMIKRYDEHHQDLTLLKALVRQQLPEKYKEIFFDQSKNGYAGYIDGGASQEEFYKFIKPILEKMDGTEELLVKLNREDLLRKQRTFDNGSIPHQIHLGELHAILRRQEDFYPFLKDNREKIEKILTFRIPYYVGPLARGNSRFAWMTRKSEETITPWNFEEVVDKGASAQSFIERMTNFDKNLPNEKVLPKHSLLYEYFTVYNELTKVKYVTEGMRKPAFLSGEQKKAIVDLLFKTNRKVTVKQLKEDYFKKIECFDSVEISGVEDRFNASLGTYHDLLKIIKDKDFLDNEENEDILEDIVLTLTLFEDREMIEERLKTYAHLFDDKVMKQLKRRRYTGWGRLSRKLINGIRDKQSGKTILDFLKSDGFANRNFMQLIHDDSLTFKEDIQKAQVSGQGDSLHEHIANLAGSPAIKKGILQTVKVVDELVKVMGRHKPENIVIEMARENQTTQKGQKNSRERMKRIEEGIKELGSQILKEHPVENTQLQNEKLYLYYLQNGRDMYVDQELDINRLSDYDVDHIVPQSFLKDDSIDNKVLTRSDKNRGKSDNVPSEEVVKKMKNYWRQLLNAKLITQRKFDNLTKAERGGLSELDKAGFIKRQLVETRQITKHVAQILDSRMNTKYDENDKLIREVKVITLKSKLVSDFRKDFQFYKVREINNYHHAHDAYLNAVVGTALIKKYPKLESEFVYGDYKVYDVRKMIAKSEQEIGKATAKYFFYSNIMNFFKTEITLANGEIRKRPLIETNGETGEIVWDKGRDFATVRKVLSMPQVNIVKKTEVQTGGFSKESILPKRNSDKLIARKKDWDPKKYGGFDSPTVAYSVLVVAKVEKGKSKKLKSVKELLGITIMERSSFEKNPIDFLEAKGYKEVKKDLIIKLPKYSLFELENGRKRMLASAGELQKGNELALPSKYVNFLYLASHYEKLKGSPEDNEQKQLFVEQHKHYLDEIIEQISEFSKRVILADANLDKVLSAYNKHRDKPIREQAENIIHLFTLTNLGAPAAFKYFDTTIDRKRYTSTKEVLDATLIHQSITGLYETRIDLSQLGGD
Experimental: mKate2 expression assay. Approximately 8,000 cells/well were plated in a 96-well format 24 h before transiently transfected with 100 ng of either CgRNA (Addgene Plasmid #64955) or T1gRNA (Addgene Plasmid #62717) plasmids using lipofectamine 2000 (Life Technologies). Transfected cells were allowed to grow in the indicated amount of compound or DMSO for 24 h. Cells were then fixed using 4% paraformaldehyde and imaged with the HCS NuclearMask™ Blue Stain (Life Technologies) as the nuclear counter-staining agent. Imaging was performed with an IXM 137204 ImageXpress Automated High Content Microscope (Molecular Devices) at 20× magnification under two excitation channels (blue and red) with 9 acquiring sites per well. Images were analyzed in the MetaXpress software to determine the % mKate2 positive cells and the % NHEJ was calculated following a reported protocol and plotted using GraphPad Prism 6. The Z′-value was calculated following the formula: […]

SpCas9 [2] = target: T1, SpCas9; experiment: mCherry-GFP NHEJ assay; format: cell-based; settings: HEK293T cells; 2-10 μM; 24 h
Experimental: NHEJ assay. Approximately 8,000 cells/well were plated in a 96-well format 24 h before transiently transfected with a total 100 ng of DN66 (mCherry-TAG-GFP reporter) and DN78 (SpCas9 and gRNA) plasmids (1:1) using lipofectamine 2000 (Life Technologies) 3. Transfected cells were allowed to grow in the indicated amount of compound or DMSO for 24 h. Cells were then fixed using 4% paraformaldehyde and imaged with the HCS NuclearMask™ Blue Stain (Life Technologies) as the nuclear counter-staining agent. Imaging was performed with an IXM 137204 ImageXpress Automated High Content Microscope (Molecular Devices) at 20× magnification under three excitation channels (blue, green and red) with 9 acquiring sites per well. Images were analyzed in the MetaXpress software to determine the % NHEJ and the data were plotted using GraphPad Prism 6. The Z′-value was calculated following the formula: […]

S. aureus RN4220 strain = experiment: Bacterial resistance study against phage (CRISPR-immunity, OD600 growth curves); format: cell-based; settings: 5-20 μM; for blockage of CRISPR-immunity: sensitization of immune bacterial cells to phage: OD600 over 16 hours, phage MOI 1
Experimental: (§1) Bacterial study. Plasmid pRH248 harboring SpCas9, tracrRNA and a single-spacer array ([…]) (SEQ ID 13) No. targeting phage (DNM474 was constructed via BsaI cloning onto pDB114 as described in Heler et al 6. Plate reader growth curves of bacteria infected with phage were conducted as described previously with minor modifications 7. Overnight cultures were diluted 1:100 into 2 ml of fresh BHI supplemented with appropriate antibiotics and 5 mM CaCl2) and grown to an OD600 of ˜0.2. Immune cells carrying pRH248 were diluted with cells lacking CRISPR-Cas in a 1:10,000 ratio. Following a 15-minute pre-incubation with DMSO or with varying amounts of inhibitors (5-20 μM), the cultures were infected with <DNM474 at an initial MOI of 1. To produce plate reader growth curves, 200 μL of infected cultures, normalized for OD600, were transferred to a 96-well plate in triplicate. OD600 measurements were collected every 10 minutes for 16 hours. Similarly, growth curves to evaluate the toxicity of the compounds at 20 μM (FIG. 32) were conducted on cultures lacking CRISPR in the absence of phage.
as §1, with “NO:38)” for “13) No.”, “DNM474” for “(DNM474”, “al^6.” for “al 6.”, “modifications^7.” for “modifications 7.”, “DNM474” for “<DNM474”, “Similarly, growth curves to evaluate the toxicity of the compounds at 20 μM (FIG. 32) were conducted on cultures lacking CRISPR in the absence of phage.” left out

Which “cytotoxicity: cellular ATP-levels” value (U2OS.eGFP.PEST cells) does the source give for `COc1ccc(-c2ccc3c(c2)[C@H]2[C@H](CCN2Cc2ccncc2)[C@@H](CO)N3)cc1` [BRD5779, ((3aR,4S,9bR)-8-(4-Methoxyphenyl)-1-(pyridin-4-ylmethyl)-2,3,3a,4,5,9b-hexahydro-1H-pyrrolo[3,2-c]quinolin-4-yl)methanol] here?
Its value is “did not significantly alter the cellular ATP-levels”.

What about the “cytotoxicity: cellular ATP-levels” value (HEK293T cells) of the same molecule?
The value was “did not significantly alter the cellular ATP-levels”.

And the “activity in mKate2 assay” value (SpCas9 [1])?
Its value is “Dose-dependent recovery of the mKate2 signal”.

What about the “inhibition of SpCas9-mediated NHEJ” value (SpCas9 [2]) of the same molecule?
The value was “Dose-dependent inhibition of SpCas9-mediated NHEJ; also recorded: active”.

And the “blockage of CRISPR-immunity: sensitization of immune bacterial cells to phage” value (S. aureus RN4220 strain)?
Its value is “able to sensitize the immune bacterial cells against target phage in a dose-dependent manner; also recorded: dose-dependent blockage of CRISPR-Cas9 based immunity”.

Which results are given for `OC[C@H]1Nc2ccc(-c3cccc(F)c3)cc2[C@H]2[C@@H]1CCN2Cc1ccncc1` [BRD7087, ((3aR,4S,9bR)-8-(3-Fluorophenyl)-1-(pyridin-4-ylmethyl)-2,3,3a,4,5,9b-hexahydro-1H-pyrrolo[3,2-c]quinolin-4-yl)methanol]?
cytotoxicity: cellular ATP-levels (U2OS.eGFP.PEST cells): did not significantly alter the cellular ATP-levels; cytotoxicity: cellular ATP-levels (HEK293T cells): did not significantly alter the cellular ATP-levels; IC50 (SpCas9 [1]): ~5 µM; activity in mKate2 assay (SpCas9 [1]): Dose-dependent recovery of the mKate2 signal; also recorded: more active than BRD5779; inhibition of SpCas9-mediated NHEJ (SpCas9 [2]): Dose-dependent inhibition of SpCas9-mediated NHEJ; also recorded: active; activity in phage assay compared with BRD5779 (S. aureus RN4220 strain): higher activity; blockage of CRISPR-immunity: sensitization of immune bacterial cells to phage (S. aureus RN4220 strain): able to sensitize the immune bacterial cells against target phage in a dose-dependent manner; also recorded: dose-dependent blockage of CRISPR-Cas9 based immunity
